Assay results from patent publication US6576625B2, “Targeted vesicular constructs for cytoprotection and treatment of H. pylori infections” (Panacea Biotic Limited, priority 2001, dated 2003).

Tested on: NSAID induced, gastric lesions followed by colonization of gastric mucosa by orally delivered H. felis
Experiment: Ulcer healing (cytorepairing and cytoprotective performance) in rats, Sakita's classification
Assay type: in vivo, albino male rats of Wistar origin
Conditions: at the same MIC90 level
Procedure: The cytorepairing and cytoprotective performance of the prepared liposomes was assessed in albino male rats of Wistar origin. The level of ulcer healing (%RUh) following the administration of liposomes against the NSAID induced, gastric lesions followed by colonization of gastric mucosa by orally delivered H. felis suspension culture was studied. The degree of ulceration and rate of ulcer healing was determined following the classification of Sakita (Sakita, T., Oguro, Y., Miwa, T., 1981, In: Handbook of Intestinal Endoscopy 1 ed., Tokyo: Chugi-Igakusha, 375-396) and Tamada (Tamada, F., 1992, In: Diagnostic and Therapeutic Gastrointestinal Endoscopy, KSH Hospital, 23-25), both incorporated herein by reference. Histopathological examination of the gastric mucosa was done using phase contrast research microscope (Leitz-Biomed, Germany).

CC1(C)S[C@@H]2[C@H](NC(=O)[C@H](N)c3ccc(O)cc3)C(=O)N2[C@H]1C(=O)O [amoxycillin, Amoxycillin]
recovery (ulcer healing): 33.3%
